According to paper PMC7761830, “Structure-Based Virtual Screening of Ultra-Large Library Yields Potent Antagonists for a Lipid GPCR” (Biomolecules, 2020):
Where a chain is given by its changes, count along the chain named. Values joined by “and” are separate entries in the source; they are usually repeats but may differ in a detail not shown here. Identical values can stand only once.

Tests used:
Assay type in all cases: cell-based
wild-type CysLT2R [1] = molecular target: T1, wild-type CysLT2R (Homo sapiens, UniProt Q9NS75); test: IP1 production assay, antagonist mode, LTC4 (EC80) as agonist; settings: HEK293, wild-type CysLT2R; LTC4 at EC80
T1 construct: expressed in transfected cells; host or cells: HEK293 (ATCC CRL-1573), transient transfection with Lipofectamine 3000
T1 sequence (Q9NS75 1-346): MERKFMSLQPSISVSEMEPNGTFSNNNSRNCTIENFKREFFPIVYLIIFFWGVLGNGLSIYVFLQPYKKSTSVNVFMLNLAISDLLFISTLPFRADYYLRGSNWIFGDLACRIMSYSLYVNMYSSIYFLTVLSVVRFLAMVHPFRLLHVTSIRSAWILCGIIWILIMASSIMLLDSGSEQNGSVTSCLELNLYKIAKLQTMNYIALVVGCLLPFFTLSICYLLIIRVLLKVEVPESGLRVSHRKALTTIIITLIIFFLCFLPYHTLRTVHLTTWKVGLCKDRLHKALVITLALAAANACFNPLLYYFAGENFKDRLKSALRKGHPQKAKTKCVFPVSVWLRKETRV
Protocol: (§1) All 139 selected compounds were screened in a functional assay measuring IP1 production as an indicator of Gαq activation. For this assay, we used the Cisbio IP-One kit as previously described. Human Embryonic Kidney (HEK) 293 cells (ATCC CRL-1573) between passages 5 and 25 were seeded onto poly-L-Lysine-coated 384-well plates at 20,000 cells/well and transfected with 30 ng of cDNA coding for the wild-type CysLT1R or CysLT2R receptors or for the CysLT2R mutant L129Q, using the Lipofectamine 3000 (Thermo Fisher Scientific) transfection agent. At 48 h post-transfection, the media was removed and the cells were washed with fresh Hank’s Balanced Salt Solution (HBSS). […] First, all 139 selected compounds were screened at a 30 µM concentration in both the agonist and antagonist mode in cells transiently expressing the wildtype CysLT1R or CysLT2R receptors. […] For CysLT1R, the compounds retained were BRI-12328, BRI-12334, BRI-12359, BRI-12410, BRI-12411, BRI-12417, BRI-12424, BRI-12435, BRI-12450, and BRI-12458; for CysLT2R, these were BRI-12328, BRI-12334, BRI-12359, BRI-12401, BRI-12402, BRI-12405, BRI-12410, BRI-413, BRI-12417, BRI-12424, BRI-426, BRI-427, BRI-450, BRI-453, BRI-454, BRI-458, and BRI-466. These hits were again tested in the antagonist mode with compound concentrations ranging from 1.56 µM to 100 µM, at 2-fold concentration intervals. The three best hits (BRI-12359, BRI-417, and BRI-424) were also tested using the LTC4 ligand (EC80 concentration) and in cells transiently expressing the constitutively active CysLT2R mutant L129Q. […] After compound stimulation, the cells were incubated for 1 h at 37 °C and stimulated with IP1-D2 and Ab-Crypt reagents in Lysis Buffer. The cells were then incubated at room temperature for an additional hour. The plate was read on a Tecan Genios Pro plate reader using a HTRF (homogeneous time-resolved fluorescence) filter set (λex = 320 nm, λem = 620 and 655 nm). Normalized data were plotted using either the three-parameter or four-parameter EC50/IC50 fits of GraphPad Prism 8 (San Diego). […] Data represent the means ± SEM of at least three independent experiments performed in quadruplicate. For the additional antagonist experiments performed with BRI-12359, we performed Schild analysis in order to determine pA2 values.

wild-type CysLT1R [2] = molecular target: T2, wild-type CysLT1R (Homo sapiens, UniProt Q9Y271); test: as above; settings: HEK293, wild-type CysLT1R, LTC4 at EC80; for Ki: functional Ki by Cheng-Prusoff, read-out: CysLT1R (LTC4) Ki ± SEM
T2 construct: expressed in transfected cells; host or cells: HEK293 (ATCC CRL-1573), transient transfection with Lipofectamine 3000
T2 sequence (Q9Y271 1-337): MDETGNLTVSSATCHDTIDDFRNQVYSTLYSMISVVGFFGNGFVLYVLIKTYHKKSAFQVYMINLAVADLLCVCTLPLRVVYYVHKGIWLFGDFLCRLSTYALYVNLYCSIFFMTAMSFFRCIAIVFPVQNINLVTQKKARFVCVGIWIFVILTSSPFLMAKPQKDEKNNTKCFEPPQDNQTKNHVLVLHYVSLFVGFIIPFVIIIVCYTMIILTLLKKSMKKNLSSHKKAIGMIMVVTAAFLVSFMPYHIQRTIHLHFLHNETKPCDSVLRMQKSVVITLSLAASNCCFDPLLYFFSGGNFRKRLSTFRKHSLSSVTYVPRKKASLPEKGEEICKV
Protocol: as §1

CysLT2R mutant L129Q = molecular target: T3, CysLT2R mutant L129Q (Homo sapiens, UniProt Q9NS75, L129Q); test: IP1 production assay, constitutively active mutant, direct compound stimulation (inverse agonism); settings: for % max inhibition ± SEM of constitutive IP1 accumulation: WT non-stimulated = 0%, L129Q non-stimulated = 100%
T3 construct: expressed in transfected cells; host or cells: HEK293 (ATCC CRL-1573), transient transfection with Lipofectamine 3000
T3 sequence (Q9NS75 1-346 L129Q): T1 sequence (Q9NS75 1-346) with L129Q
Protocol: as §1
This effect would be particularly interesting in the case of the L129Q CysLT2R mutant identified in uveal melanoma patients. We tested these three compounds in the functional IP1 assay using cells transiently expressing the L129Q CysLT2R mutant, directly stimulated with a range of compound concentrations (1.6 to 100 μM).

CysLT2R-WT = molecular target: T4, CysLT2R-WT (Homo sapiens, UniProt Q9NS75); test: IP1 production assay, Schild analysis: fixed BRI-12359 then range of LTD4
T4 construct: expressed in transfected cells; host or cells: HEK293 (ATCC CRL-1573), transient transfection with Lipofectamine 3000
T4 sequence (Q9NS75 1-346): T1 sequence (Q9NS75 1-346)
Protocol: (§2) For this assay, we used the Cisbio IP-One kit as previously described. […] At 48 h post-transfection, the media was removed and the cells were washed with fresh Hank’s Balanced Salt Solution (HBSS). […] After compound stimulation, the cells were incubated for 1 h at 37 °C and stimulated with IP1-D2 and Ab-Crypt reagents in Lysis Buffer. The cells were then incubated at room temperature for an additional hour. […] Normalized data were plotted using either the three-parameter or four-parameter EC50/IC50 fits of GraphPad Prism 8 (San Diego). […] Data represent the means ± SEM of at least three independent experiments performed in quadruplicate.

CysLT1R-WT = molecular target: T5, CysLT1R-WT (Homo sapiens, UniProt Q9Y271); test: as above
T5 construct: expressed in transfected cells; host or cells: HEK293 (ATCC CRL-1573), transient transfection with Lipofectamine 3000
T5 sequence (Q9Y271 1-337): T2 sequence (Q9Y271 1-337)
Protocol: as §2

wild-type CysLT2R [3] = molecular target: T1, wild-type CysLT2R; test: IP1 production assay, antagonist mode, co-stimulation with EC80 LTD4; settings: for inhibition at 30 µM: HEK293, compound 30 µM, LTD4 at EC80, HEK293, wild-type CysLT2R, read-out: inhibition of LTD4-induced IP1 production, single-concentration screen; for Emax: HEK293, read-out: CysLT2R (LTD4) % Max Inhibition ± SEM
wild-type CysLT1R [4] = molecular target: T2, wild-type CysLT1R; test: as above; settings: for Emax: HEK293, read-out: CysLT1R (LTD4) % Max Inhibition ± SEM; for extent of inhibition of LTD4-mediated response at CysLT1R (in words): antagonist mode, 1.5 to 100 µM
[5] = HEK293 transiently expressing CysLT2R L129Q

CysLT2R (LTC4) % Max Inhibition ± SEM (wild-type CysLT2R [1]) [%]	CysLT1R (LTC4) % Max Inhibition ± SEM (wild-type CysLT1R [2]) [%]	Ki (wild-type CysLT1R [2])	inhibition of IP1 production by CysLT2R L129Q mutant (in words) (CysLT2R mutant L129Q; 100 μM compound)	% max inhibition ± SEM of constitutive IP1 accumulation (CysLT2R mutant L129Q; [5]) [%]	IC50 (CysLT2R mutant L129Q; HEK293 transiently expressing CysLT2R L129Q, compound 1.6 to 100 μM, no agonist, read-out: IC50 ± SEM, inhibition of constitutive IP1 accumulation)	Kb (CysLT2R-WT) [nM]	pA2 ± SEM (CysLT2R-WT; Schild analysis, CysLT2R-WT, LTD4)	Kb (CysLT1R-WT) [nM]	pA2 ± SEM (CysLT1R-WT; Schild analysis, CysLT1R-WT, LTD4)	Ki (wild-type CysLT2R [3]) [nM]	remaining activity at 30 µM (wild-type CysLT2R [3]) [%]	inhibition at 30 µM (wild-type CysLT2R [3]) [%]	Emax (wild-type CysLT2R [3]) [%]	extent of inhibition of LTD4-induced response at CysLT2R (in words) (wild-type CysLT2R [3]; antagonist mode, 1.5 to 100 µM)	Ki (wild-type CysLT1R [4]) [nM]	remaining activity at 30 µM (wild-type CysLT1R [4]) [%]	Emax (wild-type CysLT1R [4]) [%]	extent of inhibition of LTD4-mediated response at CysLT1R (in words) (wild-type CysLT1R [4])	inhibition at 30 µM (wild-type CysLT1R [4]; HEK293, compound 30 µM, LTD4 at EC80, HEK293, wild-type CysLT1R, read-out: inhibition of LTD4-induced IP1 production, single-concentration screen) [%]	Compound
65 ± 11	105 ± 7	700 nM and 720 nM	practically full inhibition	82 ± 11	30000 to 40000 nM and 32000 nM	105000 ± 37000	4.0 ± 0.2 −log	340 ± 90	6.5 ± 0.1 −log	6460 ± 430	36.2	≥ 50	92 ± 15	fully abolished	1030 ± 280	5.59	121 ± 13	completely inhibit		NC(=O)c1ccsc1NC(=O)CSc1nnc(-c2c[nH]c3ccccc23)o1 [BRI-12359]
9 ± 5	52 ± 9	180 ± 30 nM		21 ± 10							79.7	< 50	7 ± 5		220 ± 30	50.8	71 ± 19	partial antagonism	≥ 50	Cn1c(-c2ccc(NC(=O)c3cccc(OCC(=O)O)c3)cc2)nc2ccccc21 [BRI-12424]
